Measurements: PubChem BioAssay (NCI)
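All cell lines were grown in 96-well plates and treated with compound for 48 hours. GI50: concentration for 50% inhibition of growth. TGI: concentration producing complete growth inhibition.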

Assays:
Test in all cases: DTP human tumour cell line panel, 48 h; in the data active = GI50 below about 0.43 µM; inactive = the rest
[1] = system: OVCAR-8 ovarian
[2] = system: COLO 205 colon
[3] = system: SK-MEL-2 melanoma
[4] = system: UACC-257 melanoma
[5] = system: HOP-92 NSCLC
[6] = system: IGROV1 ovarian
[7] = system: SNB-78 CNS
[8] = system: NCI-H522 lung
[9] = system: KM12 colon
[10] = system: EKVX NSCLC
[11] = system: DMS 114 small cell lung
[12] = system: HL-60(TB) leukemia
[13] = system: MOLT-4 leukemia
[14] = system: SNB-19 CNS
[15] = system: CCRF-CEM leukemia
[16] = system: K-562 leukemia
[17] = system: OVCAR-4 ovarian
[18] = system: HOP-62 NSCLC
[19] = system: RPMI-8226 leukemia
[20] = system: LXFL 529 NSCLC
[21] = system: DLD-1 colon
[22] = system: MALME-3M melanoma
[23] = system: SK-OV-3 ovarian
[24] = system: NCI-H23 lung
[25] = system: XF 498 CNS
[26] = system: HCT-116 colon
[27] = system: SF-295 CNS
[28] = system: TK-10 renal
[29] = system: LOX IMVI melanoma
[30] = system: U251 CNS
[31] = system: SK-MEL-28 melanoma
[32] = system: SF-539 CNS
[33] = system: SK-MEL-5 melanoma
[34] = system: KM20L2 colon
[35] = system: SNB-75 CNS
[36] = system: UACC-62 melanoma
[37] = system: SW-620 colon
[38] = system: A549 NSCLC
[39] = system: NCI-H460 lung
[40] = system: RXF 393 renal
[41] = system: UO-31 renal
[42] = system: SF-268 CNS
[43] = system: M19-MEL melanoma
[44] = system: 786-0 renal
[45] = system: OVCAR-5 ovarian
[46] = system: CAKI-1 renal
[47] = system: M14 melanoma
[48] = system: HOP-18 NSCLC
[49] = system: DMS 273 small cell lung
[50] = system: NCI-H226 lung
[51] = system: ACHN renal
[52] = system: HT29 colon
[53] = system: HCC-2998 colon
[54] = system: SN12C renal
[55] = system: HCT-15 colon
[56] = system: OVCAR-3 ovarian

CCOC(=O)C(N)C[S][Sn]([CH3])([CH3])[Cl] (configuration not stated)
inactive: GI50 [1] > 100 µM | GI50 [2] > 100 µM | GI50 [3] > 100 µM | GI50 [4] > 100 µM | GI50 [5] > 100 µM | GI50 [6] > 100 µM | GI50 [7] > 94.3 µM | GI50 [8] 18.4 µM | GI50 [9] > 100 µM | GI50 [10] > 100 µM | GI50 [11] 97.4 µM | GI50 [12] > 51.4 µM | GI50 [13] > 65.2 µM | GI50 [14] > 100 µM | GI50 [15] > 55.2 µM | GI50 [16] 39.6 µM | GI50 [17] > 100 µM | GI50 [18] > 100 µM | GI50 [19] > 84.9 µM | GI50 [20] 28.7 µM | GI50 [21] > 100 µM | GI50 [22] > 100 µM | GI50 [23] > 100 µM | GI50 [24] > 100 µM | GI50 [25] > 100 µM | GI50 [26] > 100 µM | GI50 [27] > 100 µM | GI50 [28] > 100 µM | GI50 [29] 37 µM | GI50 [30] > 100 µM | GI50 [31] > 100 µM | GI50 [32] > 100 µM | GI50 [33] > 100 µM | GI50 [34] > 100 µM | GI50 [35] 52.5 µM | GI50 [36] 65.9 µM | GI50 [37] > 100 µM | GI50 [38] > 100 µM | GI50 [39] > 100 µM | GI50 [40] > 100 µM | GI50 [41] > 100 µM | GI50 [42] > 100 µM | GI50 [43] > 89.1 µM | GI50 [44] > 100 µM | GI50 [45] > 100 µM | GI50 [46] > 100 µM | GI50 [47] > 100 µM | GI50 [48] > 100 µM | GI50 [49] > 100 µM | GI50 [50] > 100 µM | GI50 [51] > 100 µM | GI50 [52] > 100 µM | GI50 [53] > 100 µM | GI50 [54] > 100 µM | GI50 [55] > 79.1 µM | GI50 [56] > 100 µM
38.4 µM: TGI [8]
> 100 µM: TGI [1] | TGI [2] | TGI [3] | TGI [4] | TGI [5] | TGI [6] | TGI [7] | TGI [9] | TGI [10] | TGI [11] | TGI [13] | TGI [14] | TGI [15] | TGI [16] | TGI [17] | TGI [18] | TGI [19] | TGI [20] | TGI [21] | TGI [22] | TGI [23] | TGI [24] | TGI [25] | TGI [26] | TGI [27] | TGI [28] | TGI [29] | TGI [30] | TGI [31] | TGI [32] | TGI [33] | TGI [34] | TGI [35] | TGI [36] | TGI [37] | TGI [38] | TGI [39] | TGI [40] | TGI [41] | TGI [42] | TGI [43] | TGI [44] | TGI [45] | TGI [46] | TGI [47] | TGI [48] | TGI [49] | TGI [50] | TGI [51] | TGI [52] | TGI [53] | TGI [54] | TGI [55] | TGI [56]
> 77.4 µM: TGI [12]
